Measured values taken from ChEMBL document CHEMBL3217503, “Antivascular and anticancer activity of dihalogenated A-ring analogues of combretastatin A-4” (Medchemcomm, 2010).
Activity calls are given as the source filed them. The calls are words filed in the database; no cut-off is given here.

How the values were obtained:
SK-OV-3 [1] = test: Cell cycle arrest in human SKOV3 cells assessed as accumulation at G1 phase at 5 nM after 24 hrs by propidium iodide staining-based flow cytometry (reference value: 54.4%); format: functional
SK-OV-3 [2] = test: Antimitotic activity in human SKOV3 cells at 1 to 100 nM after 16 hrs by Hoechst staining-based confocal microscopy; format: functional, cell-based
HeLa [3] = test: Antimitotic activity in human HeLa cells expressing GFP-tagged tubulin assessed as collapse of mitotic spindle during anaphase at 10 nM after 31 mins by fluorescence-based spinning-disk confocal microscopy; format: functional, cell-based
SK-OV-3 [4] = test: Antimitotic activity in taxol-resistant human SKOV3 cells at 1 to 100 nM after 16 hrs by Hoechst staining-based confocal microscopy; format: functional, cell-based
HeLa [5] = test: Antimitotic activity in human HeLa cells assessed as depolymerisation of interphase microtubule network at 0.1 to 1 uM after 16 hrs by Hoechst staining-based confocal microscopy; format: functional, cell-based
HeLa [6] = test: Antimitotic activity in human HeLa cells expressing GFP-tagged tubulin assessed as disappearance of mitotic spindle during metaphase at 10 to 100 nM after 21 to 36 mins by fluorescence-based spinning-disk confocal microscopy; format: functional, cell-based
PBMC = test: Cytotoxicity in human PBMC assessed as cell viability up to 10 uM after 48 hrs by MTS assay; format: cell-based
HeLa [7] = test: Antimitotic activity in human HeLa cells expressing GFP-tagged tubulin assessed as membrane blebbing during interphase at 10 nM after 51 mins by fluorescence-based spinning-disk confocal microscopy; format: functional, cell-based
HUVEC [8] = test: Antivascular activity in growth factor-induced HUVEC after 45 hrs xCELLigence analysis; format: functional, cell-based; details: Homo sapiens
HUVEC [9] = test: Antivascular activity in growth factor-induced HUVEC after 24 hrs xCELLigence analysis; format: functional, cell-based; details: Homo sapiens
HUVEC [10] = test: Antiproliferative activity against growth factor-induced HUVEC assessed as growth inhibition after 48 hrs by MTS assay; format: functional, cell-based; details: Homo sapiens
SK-OV-3 [11] = test: Cell cycle arrest in human SKOV3 cells assessed as accumulation at G2/M phase at 5 nM after 24 hrs by propidium iodide staining-based flow cytometry (reference value: 13.6%); format: functional
SK-OV-3 [12] = test: Cell cycle arrest in human SKOV3 cells assessed as accumulation at S phase at 5 nM after 24 hrs by propidium iodide staining-based flow cytometry (reference value: 31.2%); format: functional
HeLa [13] = test: Antimitotic activity in human HeLa cells assessed as redistribution of microtubules around nuclear envelope of cells at 100 nM after 16 hrs by Hoechst staining-based confocal microscopy; format: functional, cell-based
SK-OV-3 [14] = test: Cytotoxicity against human SKOV3 cells assessed as cell viability after 48 hrs by MTS assay; format: functional, cell-based; details: SK-OV-3, 48 h
SK-OV-3 [15] = test: Cytotoxicity against taxol-resistant human SKOV3 cells assessed as cell viability after 48 hrs by MTS assay; format: functional, cell-based; details: SK-OV-3, 48 h
HeLa [16] = test: Antimitotic activity in human HeLa cells expressing GFP-tagged tubulin assessed as membrane blebbing during interphase at 10 to 100 nM after 31 to 34 mins by fluorescence-based spinning-disk confocal microscopy; format: functional, cell-based
HeLa [17] = test: Antimitotic activity in human HeLa cells assessed as membrane blebbing at 0.1 to 1 uM after 16 hrs by Hoechst staining-based confocal microscopy; format: functional, cell-based
HeLa [18] = test: Antimitotic activity in human HeLa cells assessed as disproportionate mitotic cells at 10 nM after 16 hrs by Hoechst staining-based confocal microscopy; format: functional, cell-based
HeLa [19] = test: Cytotoxicity against human HeLa cells assessed as cell viability after 48 hrs by MTS assay; format: functional, cell-based
SK-OV-3 [20] = test: Cell cycle arrest in human SKOV3 cells assessed as accumulation at G2/M phase at 200 nM after 24 hrs by propidium iodide staining-based flow cytometry (reference value: 13.6%); format: functional
K562 = test: Cytotoxicity against human K562 cells; format: functional, cell-based
HeLa [21] = test: Antimitotic activity in human HeLa cells assessed as depolymerisation of interphase microtubule network at 10 to 100 nM after 16 hrs by Hoechst staining-based confocal microscopy; format: functional, cell-based
HeLa [22] = test: Antimitotic activity in human HeLa cells assessed as change in interphase microtubule network at 1 nM after 16 hrs by Hoechst staining-based confocal microscopy; format: functional, cell-based

In the case of `COc1ccc(/C=C\c2cc(Br)c(OC)c(Br)c2)cc1O`, the Activity (SK-OV-3 [1]) is reported as 25.7%, the Activity (SK-OV-3 [2]) is reported as “Active” and the Activity (HeLa [3]) is reported as “Active”. For the same compound, the Activity (SK-OV-3 [4]) was “Active”, the Activity (HeLa [5]) was “Active” and the Activity (HeLa [6]) was “Active”. For the same compound, the Activity (PBMC) was “Non-toxic”, the Activity (HeLa [7]) was “Active” and the EC50 (HUVEC [8]) was 1.1 nM. It also gave an EC50 (HUVEC [9]) of 2.2 nM, an EC50 (HUVEC [10]) of 0.2 nM and an Activity (SK-OV-3 [11]) of 51.5%. For the same compound, the Activity (SK-OV-3 [12]) was 21%, the Activity (HeLa [13]) was “Active” and the EC50 (SK-OV-3 [14]) was 1.7 nM. For the same compound, the EC50 (SK-OV-3 [15]) was 1.1 nM, the Activity (HeLa [16]) was “Active” and the Activity (HeLa [17]) was “Active”. For the same compound, the Activity (HeLa [18]) was “Active” and the EC50 (HeLa [19]) was 6.7 nM.
`COc1ccc(/C=C\c2cc(I)c(OC)c(I)c2)cc1O` was tested, and the Activity (SK-OV-3 [1]) was 1.3%, the EC50 (HUVEC [8]) was 0.9 nM and the EC50 (HUVEC [9]) was 0.9 nM. For the same compound, the Activity (SK-OV-3 [11]) was 83.6% and the Activity (SK-OV-3 [12]) was 12.9%.
Work on `COc1ccc(/C=C\c2cc(F)c(OC)c(F)c2)cc1O` yielded an EC50 (HUVEC [8]) of 224 nM, an EC50 (HUVEC [9]) of 193 nM and an Activity (SK-OV-3 [20]) of 73.7%.
Work on `COc1ccc(/C=C\c2ccccc2)cc1O` yielded an EC50 (K562) of 500 nM.
`COc1ccc(/C=C\c2cc(Cl)c(OC)c(Cl)c2)cc1O` showed an Activity (SK-OV-3 [1]) of 43.7%, an EC50 (HUVEC [8]) of 2.3 nM and an EC50 (HUVEC [9]) of 2.6 nM. It also gave an Activity (SK-OV-3 [11]) of 32.2% and an Activity (SK-OV-3 [12]) of 18.6%.
`COc1ccc(/C=C\c2cc(C)c(C)c(C)c2)cc1O` was tested, and the EC50 (K562) was 20 nM.
With `COc1ccc(/C=C\c2ccc(C)c(C)c2)cc1O` the EC50 (K562) was 70 nM.
For `COc1ccc(/C=C\c2cc(OC)c(OC)c(OC)c2)cc1O` [COMBRETASTATIN A4], the Activity (SK-OV-3 [1]) was 40.1%, the Activity (HeLa [21]) was “Active” and the Activity (HeLa [22]) was “inactive”. For the same compound, the Activity (PBMC) was “Non-toxic”, the EC50 (HUVEC [8]) was 0.9 nM and the EC50 (HUVEC [9]) was 1.9 nM. For the same compound, the EC50 (K562) was 1 nM, the EC50 (HUVEC [10]) was 3.2 nM and the Activity (SK-OV-3 [11]) was 30.5%. The Activity (SK-OV-3 [12]) was 23.1%, the EC50 (SK-OV-3 [14]) was 1.2 nM and the EC50 (SK-OV-3 [15]) was 3.1 nM. The EC50 (HeLa [19]) was 1.4 nM.
